According to the NIST ThermoML archive (doi:10.1021/je049672l):
“And” between values parts separate entries of the source, which are not always exact repeats. Equal entries are not always repeated.

Details: for mass density: Vibrating tube method; for vapor or sublimation pressure: Closed cell (Static) method

CC(C)C [2-methylpropane]
Fluid (supercritical or subcritical phases)
Details | mass density [kg/m3]
240 K, 484.1 kPa | 617.68
240 K, 1027.4 kPa | 618.3
240 K, 1538.4 kPa | 618.86
240 K, 2037.8 kPa | 619.41
240 K, 2522.8 kPa | 619.95
240 K, 3029.3 kPa | 620.49
240 K, 3501.9 kPa | 621
240 K, 4038.4 kPa | 621.58
240 K, 4542.1 kPa | 622.1
240 K, 5022.8 kPa | 622.62
240 K, 5522.1 kPa | 623.14
240 K, 5987.3 kPa | 623.62
240 K, 6540.8 kPa | 624.19
240 K, 7010.9 kPa | 624.66
260 K, 517.1 kPa | 595.93
260 K, 947.4 kPa | 596.52
260 K, 1503.8 kPa | 597.28
260 K, 1984.7 kPa | 597.94
260 K, 2532 kPa | 598.66
260 K, 3005.3 kPa | 599.28
260 K, 3472.2 kPa | 599.9
260 K, 4015.9 kPa | 600.6
260 K, 4464.7 kPa | 601.16
260 K, 4915.7 kPa | 601.73
260 K, 5481.6 kPa | 602.44
260 K, 5953.7 kPa | 603.05
260 K, 6532 kPa | 603.75
260 K, 7031.7 kPa | 604.37
280 K, 512.2 kPa | 573.26
280 K, 996 kPa | 574.1
280 K, 1532.9 kPa | 575.01
280 K, 2000.6 kPa | 575.8
280 K, 2508.1 kPa | 576.64
280 K, 2999.4 kPa | 577.44
280 K, 3506 kPa | 578.27
280 K, 4015.2 kPa | 579.09
280 K, 4460.5 kPa | 579.8
280 K, 4938.8 kPa | 580.54
280 K, 5494.5 kPa | 581.39
280 K, 5986.9 kPa | 582.16
280 K, 6507.2 kPa | 582.93
280 K, 6980.4 kPa | 583.64
300 K, 476.5 kPa | 548.51
300 K, 1017.6 kPa | 549.71
300 K, 1462.4 kPa | 550.7
300 K, 1999.9 kPa | 551.86
300 K, 2533.3 kPa | 552.99
300 K, 3021.3 kPa | 554.01
300 K, 3526.2 kPa | 555.05
300 K, 3965.8 kPa | 555.93
300 K, 4482.8 kPa | 556.96
300 K, 4980.2 kPa | 557.93
300 K, 5467.8 kPa | 558.87
300 K, 5953.2 kPa | 559.79
300 K, 6460.3 kPa | 560.72
300 K, 7025.2 kPa | 561.79
320 K, 1063 kPa | 522.78
320 K, 1503.5 kPa | 524.1
320 K, 2072.9 kPa | 525.74
320 K, 2548.7 kPa | 527.08
320 K, 3037.4 kPa | 528.43
320 K, 3521.6 kPa | 529.72
320 K, 4027.5 kPa | 531.05
320 K, 4496.4 kPa | 532.26
320 K, 4946.7 kPa | 533.39
320 K, 5450.3 kPa | 534.62
320 K, 5960.5 kPa | 535.86
320 K, 6511.5 kPa | 537.15
320 K, 6995.3 kPa | 538.27
340 K, 1494.6 kPa | 493.98
340 K, 2007.1 kPa | 496.16
340 K, 2499.6 kPa | 498.13
340 K, 3002.8 kPa | 500.07
340 K, 3503.8 kPa | 501.94
340 K, 4023.8 kPa | 503.83
340 K, 4507.3 kPa | 505.51
340 K, 5017.1 kPa | 507.23
340 K, 5520.7 kPa | 508.89
340 K, 5998.3 kPa | 510.42
340 K, 6512.9 kPa | 512.03
340 K, 6962.7 kPa | 513.39
360 K, 2008.5 kPa | 460.57
360 K, 2503.6 kPa | 463.81
360 K, 2997.5 kPa | 466.82
360 K, 3502.9 kPa | 469.71
360 K, 4027.6 kPa | 472.55
360 K, 4532.2 kPa | 475.11
360 K, 5024.7 kPa | 477.51
360 K, 5482.2 kPa | 479.63
360 K, 6006.8 kPa | 481.96
360 K, 6485.4 kPa | 484.01
360 K, 6987.7 kPa | 486.08
380 K, 2517.9 kPa | 417.11
380 K, 3027.5 kPa | 423.54
380 K, 3511 kPa | 428.79
380 K, 4014.9 kPa | 433.63
380 K, 4487.2 kPa | 437.71
380 K, 4990.6 kPa | 441.69
380 K, 5519.1 kPa | 445.53
380 K, 6019.7 kPa | 448.91
380 K, 6503.3 kPa | 451.96
380 K, 6952.1 kPa | 454.64

Liquid
Details | mass density [kg/m3] | vapor or sublimation pressure [kPa]
240 K | 617.17 | 40.1
260 K | 595.32 | 94.6
280 K | 572.74 | 197.8
300 K | 548.27 | 368.6
320 K | 521.48 | 632.5
340 K | 491.87 | 1013.7
360 K | 457.33 | 1541.6
380 K | 413.34 | 2250.4

CCCC [butane]
Fluid (supercritical or subcritical phases)
Details | mass density [kg/m3]
240 K, 486 kPa | 635.96
240 K, 1007.3 kPa | 636.47
240 K, 1510.1 kPa | 636.95
240 K, 2000.1 kPa | 637.42
240 K, 2570.2 kPa | 637.97
240 K, 3029.5 kPa | 638.41
240 K, 3512.2 kPa | 638.87
240 K, 4001.2 kPa | 639.35
240 K, 4487.8 kPa | 639.8
240 K, 5029 kPa | 640.31
240 K, 5540.8 kPa | 640.78
240 K, 5990.8 kPa | 641.21
240 K, 6517.3 kPa | 641.67
240 K, 7115.6 kPa | 642.22
260 K, 481 kPa | 615.74
260 K, 998.4 kPa | 616.36
260 K, 1521.8 kPa | 616.98
260 K, 2020.3 kPa | 617.55
260 K, 2488.3 kPa | 618.09
260 K, 3039.4 kPa | 618.72
260 K, 3506.9 kPa | 619.26
260 K, 3997 kPa | 619.8
260 K, 4494.6 kPa | 620.36
260 K, 5004.2 kPa | 620.91
260 K, 5503.1 kPa | 621.46
260 K, 6003.3 kPa | 622.01
260 K, 6478.7 kPa | 622.54
260 K, 6989.2 kPa | 623.08
280 K, 144.7 kPa | 593.92
280 K, 173.2 kPa | 593.97
280 K, 493.9 kPa | 594.44
280 K, 992 kPa | 595.16
280 K, 1472.7 kPa | 595.86
280 K, 1987.6 kPa | 596.59
280 K, 2465.8 kPa | 597.26
280 K, 2985.5 kPa | 597.98
280 K, 3516.7 kPa | 598.71
280 K, 3974.9 kPa | 599.34
280 K, 4513.6 kPa | 600.07
280 K, 4975 kPa | 600.69
280 K, 5428.9 kPa | 601.3
280 K, 5929.2 kPa | 601.98
280 K, 6499.1 kPa | 602.71
280 K, 7020 kPa | 603.37
300 K, 268.9 kPa | 571.14
300 K, 315.1 kPa | 571.23
300 K, 493.4 kPa | 571.55
300 K, 992.8 kPa | 572.45
300 K, 1491.3 kPa | 573.35
300 K, 2013.4 kPa | 574.26
300 K, 2499.1 kPa | 575.12
300 K, 2964 kPa | 575.92
300 K, 3499.9 kPa | 576.83
300 K, 3992.8 kPa | 577.66
300 K, 4525.1 kPa | 578.55
300 K, 4990.4 kPa | 579.31
300 K, 5543.6 kPa | 580.23
300 K, 5951.1 kPa | 580.88
300 K, 6459.3 kPa | 581.65
300 K, 7089.3 kPa | 582.62
320 K, 515.9 kPa | 546.74
320 K, 1002.9 kPa | 547.89
320 K, 1502.7 kPa | 549.06
320 K, 2011.8 kPa | 550.22
320 K, 2517.1 kPa | 551.36
320 K, 3010.6 kPa | 552.45
320 K, 3523.1 kPa | 553.55
320 K, 4015.6 kPa | 554.6
320 K, 4017.2 kPa | 554.6
320 K, 4513.3 kPa | 555.64
320 K, 4992.8 kPa | 556.63
320 K, 5473.8 kPa | 557.6
320 K, 6031 kPa | 558.74
320 K, 6510.5 kPa | 559.67
320 K, 6982.1 kPa | 560.62
340 K, 761.5 kPa | 519.87
340 K, 791.7 kPa | 519.97
340 K, 989.9 kPa | 520.64
340 K, 1519.5 kPa | 522.33
340 K, 1975.7 kPa | 523.74
340 K, 2514.4 kPa | 525.36
340 K, 3012.7 kPa | 526.82
340 K, 3504.4 kPa | 528.23
340 K, 4034.7 kPa | 529.7
340 K, 4437.7 kPa | 530.79
340 K, 4964.4 kPa | 532.19
340 K, 5471 kPa | 533.51
340 K, 5975.4 kPa | 534.78
340 K, 6451.2 kPa | 535.97
340 K, 7014.5 kPa | 537.36
360 K, 1181.7 kPa | 490.31
360 K, 1215.8 kPa | 490.48
360 K, 1507.5 kPa | 491.85
360 K, 2006.4 kPa | 494.12
360 K, 2493.7 kPa | 496.23
360 K, 2995.1 kPa | 498.32
360 K, 3489.7 kPa | 500.29
360 K, 3993.1 kPa | 502.23
360 K, 4488.7 kPa | 504.06
360 K, 4984.1 kPa | 505.83
360 K, 5504.8 kPa | 507.65
360 K, 5979.4 kPa | 509.32
360 K, 6486.7 kPa | 510.96
360 K, 7012.4 kPa | 512.64
380 K, 1845.2 kPa | 455.88
380 K, 1925.7 kPa | 456.51
380 K, 2007.2 kPa | 457.14
380 K, 2503.7 kPa | 460.77
380 K, 3010.6 kPa | 464.17
380 K, 3502 kPa | 467.25
380 K, 3999.9 kPa | 470.18
380 K, 4508.9 kPa | 473
380 K, 5015.7 kPa | 475.66
380 K, 5511.1 kPa | 478.12
380 K, 6013.8 kPa | 480.51
380 K, 6534.9 kPa | 482.88
380 K, 6978 kPa | 484.82

Liquid
Details | mass density | vapor or sublimation pressure
240 K | 634.72 kg/m3 and 634.79 kg/m3 | 26.2 kPa and 23.9 kPa
260 K | 615.48 kg/m3 | 59.9 kPa
280 K | 593.89 kg/m3 | 131.5 kPa
300 K | 571.03 kg/m3 | 256.4 kPa
320 K | 546.56 kg/m3 | 454.8 kPa
340 K | 520.07 kg/m3 and 519.84 kg/m3 | 750.5 kPa and 751 kPa
360 K | 490.27 kg/m3 and 490.24 kg/m3 | 1168.5 kPa and 1168.1 kPa
380 K | 455 kg/m3 | 1737.4 kPa
